From ChEMBL document CHEMBL4477221, “Discovery and Structure-Based Optimization of 2-Ureidothiophene-3-carboxylic Acids as Dual Bacterial RNA Polymerase and Viral Reverse Transcriptase Inhibitors” (J Med Chem, 2016)
pIC50: −log10 of the molar value. ≈ marks a conversion by molar mass, not a printed value. Calls of active or inactive are those of the source. The rule behind the calls is not given here.

tested on: not listed separately; assay: Inhibition of Escherichia coli RNA polymerase; details: not given

Compound | pIC50
CCN(Cc1ccccc1)C(=O)Nc1c(-c2ccc(Cl)cc2)csc1C(=O)O | < 3.70
CCN(Cc1ccccc1)C(=O)Nc1sc(-c2ccc(Cl)cc2)cc1C(=O)O | 4.27
CCN(Cc1ccccc1)C(=O)Nc1cc(-c2ccc(Cl)cc2)sc1C(=O)O | 4.12
CCN(Cc1ccccc1)C(=O)Nc1c(-c2ccc(Cl)c(Cl)c2)csc1C(=O)O | 4.00
O=C(Nc1ccc(NS(=O)(=O)c2ccccc2)cc1)Nc1sc(-c2ccc(Cl)c(Cl)c2)cc1C(=O)O | 5.10
CCN(Cc1ccccc1)C(=O)Nc1scc(-c2ccc(Cl)c(Cl)c2)c1C(=O)O | 4.24

target: Human immunodeficiency virus type 1 reverse transcriptase (Human immunodeficiency virus 1) (UniProt Q72547); assay: Inhibition of HIV1 reverse transcriptase using T19-Cy5 labeled 23-mer DNA/T2-TAMRA labeled 63-mer DNA as primer/template assessed as inhibition of dNTP incorporation into primer/template at 25 uM relative to control; details: not given

Compound | inhibition [%]
CCN(Cc1ccccc1)C(=O)Nc1cc(-c2ccc(Cl)cc2)sc1C(=O)O | 12

tested on: not listed separately; assay: Ratio of IC50 for NNRTI resistant HIV1 harboring reverse transcriptase K103N/V179F/Y181C mutant infected in human TZM-bl cells to IC50 for wild type HIV1 NL4-3 infected in human TZM-bl cells; assay type: functional; details: not given

Compound | Ratio IC50
O=C(Nc1ccc(NS(=O)(=O)c2ccccc2)cc1)Nc1sc(-c2ccc(Cl)c(Cl)c2)cc1C(=O)O | >1.5

target: Human immunodeficiency virus type 1 reverse transcriptase (Human immunodeficiency virus 1) (UniProt Q72547); assay: Effect on binding orientation of HIV1 Alexa 488-labeled reverse transcriptase to TAMRA-labeled primer/template duplex by FRET assay; details: not given

Compound | Activity
O=C(Nc1ccc(NS(=O)(=O)c2ccccc2)cc1)Nc1sc(-c2ccc(Cl)c(Cl)c2)cc1C(=O)O | inactive

tested on: Human immunodeficiency virus 1; assay: Antiviral activity against NNRTI resistant HIV1 harboring reverse transcriptase V106I/Y181C/G190A/H221Y mutant assessed as inhibition of viral infection in human TZM-bl cells after 48 hrs by luciferase reporter gene assay; assay type: functional, organism-based; details: Human immunodeficiency virus 1, TZM-bl

Compound | pIC50
O=C(Nc1ccc(NS(=O)(=O)c2ccccc2)cc1)Nc1sc(-c2ccc(Cl)c(Cl)c2)cc1C(=O)O | < 5.82

tested on: not listed separately; assay: Ratio of IC50 for NNRTI resistant HIV1 harboring reverse transcriptase A98G/K101E/Y181C/G190A mutant infected in human TZM-bl cells to IC50 for wild type HIV1 NL4-3 infected in human TZM-bl cells; assay type: functional; details: not given

Compound | Ratio IC50
O=C(Nc1ccc(NS(=O)(=O)c2ccccc2)cc1)Nc1sc(-c2ccc(Cl)c(Cl)c2)cc1C(=O)O | 1

tested on: Staphylococcus aureus; assay: Antibacterial activity against Staphylococcus aureus; assay type: functional; details: not given

Compound | MIC [µg/mL]
O=C(Nc1ccc(NS(=O)(=O)c2ccccc2)cc1)Nc1sc(-c2ccc(Cl)c(Cl)c2)cc1C(=O)O | 3 (≈ 5.33 µM)

tested on: Human immunodeficiency virus 1; assay: Binding affinity to bodipy-labeled HIV1 reverse transcriptase p66 W24C/K287C double mutant assessed as induction of p66 thumb and finger domain open conformation at 3 uM by fluorescence spectroscopic analysis; details: not given

Compound | Activity
O=C(Nc1ccc(NS(=O)(=O)c2ccccc2)cc1)Nc1sc(-c2ccc(Cl)c(Cl)c2)cc1C(=O)O | inactive

target: Human immunodeficiency virus type 1 reverse transcriptase (Human immunodeficiency virus 1) (UniProt Q72547); assay: Inhibition of HIV1 reverse transcriptase using T19-Cy5 labeled 23-mer DNA/T2-TAMRA labeled 63-mer DNA as primer/template assessed as inhibition of dNTP incorporation into primer/template at 1 uM relative to control; details: not given

Compound | inhibition [%]
CCN(Cc1ccccc1)C(=O)Nc1sc(-c2ccc(Cl)cc2)cc1C(=O)O | 12
CCN(Cc1ccccc1)C(=O)Nc1scc(-c2ccc(Cl)c(Cl)c2)c1C(=O)O | 12

target: Human immunodeficiency virus type 1 reverse transcriptase (Human immunodeficiency virus 1) (UniProt Q72547); assay: Inhibition of HIV1 reverse transcriptase using T19-Cy5 labeled 23-mer DNA/T2-TAMRA labeled 63-mer DNA as primer/template assessed as inhibition of dNTP incorporation into primer/template at 10 uM relative to control; details: not given

Compound | inhibition [%]
CCN(Cc1ccccc1)C(=O)Nc1c(-c2ccc(Cl)cc2)csc1C(=O)O | 13
CCN(Cc1ccccc1)C(=O)Nc1c(-c2ccc(Cl)c(Cl)c2)csc1C(=O)O | 4

tested on: not listed separately; assay: Ratio of IC50 for NNRTI resistant HIV1 harboring reverse transcriptase L100I/K103N/H221Y mutant infected in human TZM-bl cells to IC50 for wild type HIV1 NL4-3 infected in human TZM-bl cells; assay type: functional; details: not given

Compound | Ratio IC50
O=C(Nc1ccc(NS(=O)(=O)c2ccccc2)cc1)Nc1sc(-c2ccc(Cl)c(Cl)c2)cc1C(=O)O | >1.5

target: Human immunodeficiency virus type 1 reverse transcriptase (Human immunodeficiency virus 1) (UniProt Q72547); assay: Inhibition of TAMRA-labeled primer/template duplex binding to HIV1 Alexa 488-labeled reverse transcriptase by FRET assay; details: not given

Compound | Activity
O=C(Nc1ccc(NS(=O)(=O)c2ccccc2)cc1)Nc1sc(-c2ccc(Cl)c(Cl)c2)cc1C(=O)O | inactive

tested on: Human immunodeficiency virus 1; assay: Antiviral activity against wild type HIV1 NL4-3 assessed as inhibition of viral infection in human TZM-bl cells after 48 hrs by luciferase reporter gene assay; assay type: functional, organism-based; details: Human immunodeficiency virus 1, NL4-3, TZM-bl

Compound | pIC50
O=C(Nc1ccc(NS(=O)(=O)c2ccccc2)cc1)Nc1sc(-c2ccc(Cl)c(Cl)c2)cc1C(=O)O | 4.82

tested on: not listed separately; assay: Cytotoxicity against HEK293 cells; assay type: cell-based; details: human, read-out: LD50 (the source's name)

Compound | CC50 [µM]
O=C(Nc1ccc(NS(=O)(=O)c2ccccc2)cc1)Nc1sc(-c2ccc(Cl)c(Cl)c2)cc1C(=O)O | 94

target: Human immunodeficiency virus type 1 reverse transcriptase (Human immunodeficiency virus 1, UniProt Q72547); assay: Inhibition of HIV1 reverse transcriptase using T19-Cy5 labeled 23-mer DNA/T2-TAMRA labeled 63-mer DNA as primer/template assessed as inhibition of dNTP incorporation into primer/template; details: not given

Compound | pIC50
O=C(Nc1ccc(NS(=O)(=O)c2ccccc2)cc1)Nc1sc(-c2ccc(Cl)c(Cl)c2)cc1C(=O)O | 6.05
